Measured values from PubChem BioAssay AID1259407 (Chemical Carcinogenesis Research Information System (CCRIS), 2018).
Activity calls are given as the source filed them. The rule behind the calls is not given here.

Test system: CCRIS mutagenicity, Ames/micronucleus/aberration tests
Assay: CCRIS mutagenicity studies
[1] = Test System: AMES SALMONELLA TYPHIMURIUM, Strain/Indicator: TA98, Metabolic Activation: RAT, LIVER, S-9, AROCLOR 1254, Method: PREINCUBATION
[2] = Test System: AMES SALMONELLA TYPHIMURIUM, Strain/Indicator: TA100, Metabolic Activation: RAT, LIVER, S-9, AROCLOR 1254, Method: PREINCUBATION
[3] = Test System: CHINESE HAMSTER V-79, Strain/Indicator: V-79 (HGPRT)/6-THIOGUANINE, Metabolic Activation: NONE
[4] = Test System: CHINESE HAMSTER V-79, Strain/Indicator: V-79 (HGPRT)/6-THIOGUANINE, Metabolic Activation: RAT, LIVER, S-9, AROCLOR 1254

Question: How did the mutagenic call [1] turn out when `Cn1c(N)nc2cc(C#N)ccc21` was run?
Answer: The mutagenic call was “active; positive”.

Question: And the mutagenic call [2]?
Answer: The mutagenic call was “inactive; negative”.

Question: Which mutagenic call [3] does the source give for `Brc1ccc(-c2ccc(Br)c(Br)c2)cc1Br` here?
Answer: The mutagenic call was “inactive; negative”.

Question: And the mutagenic call [4]?
Answer: The mutagenic call was “inactive; negative”.

Question: What does the source list for `CC1=CC(=O)C=C2CC[C@@H]3[C@H](CC[C@]4(C)C(=O)CC[C@@H]34)[C@@]12C`?
Answer: mutagenic call (End Point: IN VITRO CHROMOSOMAL ABERRATIONS, Test System: HUMAN PERIPHERAL LYMPHOCYTES, Metabolic Activation: NONE): inactive; negative; mutagenic call (End Point: IN VITRO CHROMOSOMAL ABERRATIONS, Test System: HUMAN PERIPHERAL LYMPHOCYTES, Metabolic Activation: RAT, LIVER, S-9, AROCLOR 1254): inactive; negative; mutagenic call (End Point: IN VIVO MICRONUCLEUS, Test System: BONE MARROW POLYCHROMATIC ERYTHROCYTES, Species: MOUSE, Strain/Sex: NMRI/MALE, FEMALE, Route: INTRAGASTRIC): inactive; negative; mutagenic call (Test System: AMES SALMONELLA TYPHIMURIUM, Strain/Indicator: TA98, Metabolic Activation: NONE, Method: PREINCUBATION): inactive; negative; mutagenic call (Test System: AMES SALMONELLA TYPHIMURIUM, Strain/Indicator: TA98, Metabolic Activation: NONE, Method: STANDARD PLATE): inactive; negative; mutagenic call [1]: inactive; negative; mutagenic call (Test System: AMES SALMONELLA TYPHIMURIUM, Strain/Indicator: TA98, Metabolic Activation: RAT, LIVER, S-9, AROCLOR 1254, Method: STANDARD PLATE): inactive; negative; mutagenic call (Test System: AMES SALMONELLA TYPHIMURIUM, Strain/Indicator: TA100, Metabolic Activation: NONE, Method: PREINCUBATION): inactive; negative; mutagenic call (Test System: AMES SALMONELLA TYPHIMURIUM, Strain/Indicator: TA100, Metabolic Activation: NONE, Method: STANDARD PLATE): inactive; negative; mutagenic call [2]: inactive; negative; mutagenic call (Test System: AMES SALMONELLA TYPHIMURIUM, Strain/Indicator: TA100, Metabolic Activation: RAT, LIVER, S-9, AROCLOR 1254, Method: STANDARD PLATE): inactive; negative; mutagenic call (Test System: AMES SALMONELLA TYPHIMURIUM, Strain/Indicator: TA1535, Metabolic Activation: NONE, Method: PREINCUBATION): inactive; negative; mutagenic call (Test System: AMES SALMONELLA TYPHIMURIUM, Strain/Indicator: TA1535, Metabolic Activation: NONE, Method: STANDARD PLATE): inactive; negative; mutagenic call (Test System: AMES SALMONELLA TYPHIMURIUM, Strain/Indicator: TA1535, Metabolic Activation: RAT, LIVER, S-9, AROCLOR 1254, Method: PREINCUBATION): inactive; negative; mutagenic call (Test System: AMES SALMONELLA TYPHIMURIUM, Strain/Indicator: TA1535, Metabolic Activation: RAT, LIVER, S-9, AROCLOR 1254, Method: STANDARD PLATE): inactive; negative; mutagenic call (Test System: AMES SALMONELLA TYPHIMURIUM, Strain/Indicator: TA1537, Metabolic Activation: NONE, Method: PREINCUBATION): inactive; negative; mutagenic call (Test System: AMES SALMONELLA TYPHIMURIUM, Strain/Indicator: TA1537, Metabolic Activation: NONE, Method: STANDARD PLATE): inactive; negative; mutagenic call (Test System: AMES SALMONELLA TYPHIMURIUM, Strain/Indicator: TA1537, Metabolic Activation: RAT, LIVER, S-9, AROCLOR 1254, Method: PREINCUBATION): inactive; negative; mutagenic call (Test System: AMES SALMONELLA TYPHIMURIUM, Strain/Indicator: TA1537, Metabolic Activation: RAT, LIVER, S-9, AROCLOR 1254, Method: STANDARD PLATE): inactive; negative; mutagenic call (Test System: AMES SALMONELLA TYPHIMURIUM, Strain/Indicator: TA1538, Metabolic Activation: NONE, Method: PREINCUBATION): inactive; negative; mutagenic call (Test System: AMES SALMONELLA TYPHIMURIUM, Strain/Indicator: TA1538, Metabolic Activation: NONE, Method: STANDARD PLATE): inactive; negative; mutagenic call (Test System: AMES SALMONELLA TYPHIMURIUM, Strain/Indicator: TA1538, Metabolic Activation: RAT, LIVER, S-9, AROCLOR 1254, Method: PREINCUBATION): inactive; negative; mutagenic call (Test System: AMES SALMONELLA TYPHIMURIUM, Strain/Indicator: TA1538, Metabolic Activation: RAT, LIVER, S-9, AROCLOR 1254, Method: STANDARD PLATE): inactive; negative; mutagenic call [3]: inactive; negative; mutagenic call [4]: inactive; negative

Question: Which results are given for `O=C(Cc1ccccc1)NC(Cc1ccc(Cl)cc1)C(=O)O` (centres undefined)?
Answer: mutagenic call (Test System: AMES SALMONELLA TYPHIMURIUM, Strain/Indicator: TA98, Metabolic Activation: NONE): inactive; negative; mutagenic call (Test System: AMES SALMONELLA TYPHIMURIUM, Strain/Indicator: TA100, Metabolic Activation: NONE): active; positive; mutagenic call (Test System: AMES SALMONELLA TYPHIMURIUM, Strain/Indicator: TA1535, Metabolic Activation: NONE): inactive; negative; mutagenic call (Test System: AMES SALMONELLA TYPHIMURIUM, Strain/Indicator: TA1537, Metabolic Activation: NONE): inactive; negative; mutagenic call (Test System: E. COLI, Strain/Indicator: AB2462 UVRA, Metabolic Activation: NONE, Method: SPOT TEST): inactive; negative
